According to the CheMixHub viscosity set:
Values joined by “and” are separate entries in the source; they are usually repeats but may differ in a detail not shown here. Equal values may be shown once.

Test: xn = mol fraction of the nth substance listed

CC(=O)N1CCOCC1 + CCC(C)O
viscosity [mPa·s], 101 kPa
Conditions | 293.15 K | 303.15 K | 313.15 K | 323.15 K
x1 = 0.0516 | 5.054 | 4.116 | 3.093 | 2.101
x1 = 0.1322 | 6.732 | 5.737 | 4.626 | 3.598
x1 = 0.2217 | 8.167 | 7.11 | 5.901 | 4.833
x1 = 0.2879 | 8.981 | 7.878 | 6.596 | 5.499
x1 = 0.3188 | 9.257 | 8.132 | 6.816 | 5.706
x1 = 0.3996 | 9.785 | 8.603 | 7.199 | 6.052
x1 = 0.4597 | 10.02 | 8.8 | 7.33 | 6.157
x1 = 0.5084 | – | – | 7.42 | –
x1 = 0.5094 | 10.2 | 8.944 | – | 6.225
x1 = 0.5496 | 10.27 | 8.985 | 7.418 | 6.204
x1 = 0.6127 | 10.29 | 8.96 | 7.323 | 6.082
x1 = 0.6444 | 10.11 | 8.757 | 7.086 | 5.83
x1 = 0.6915 | 10.11 | 8.728 | 7.005 | 5.728
x1 = 0.7516 | 9.956 | 8.527 | 6.739 | 5.436
x1 = 0.7984 | 9.588 | 8.127 | 6.288 | 4.964
x1 = 0.8599 | 9.409 | 7.905 | 5.998 | 4.647
x1 = 0.9127 | 8.959 | 7.419 | 5.454 | 4.079
x2 = 0.0157 | 8.843 | 7.252 | 5.209 | 3.918

CCCCCC[n+]1ccn(C)c1.O=[N+]([O-])[O-] + CCC(C)O
Conditions | viscosity [mPa·s]
298.15 K, 100 kPa, x1 = 0.7392 | 237.5

Cc1cccc2ccccc12 + CCCCCCC
viscosity [mPa·s], 100 kPa
Conditions | x2 = 0.125 | x2 = 0.25 | x2 = 0.375 | x2 = 0.5 | x2 = 0.625 | x2 = 0.75 | x2 = 0.875
303.15 K | 1.84 | 1.36 | 1.03 | 0.8 | 0.644 | 0.524 | 0.438
323.15 K | 1.3 | 1 | 0.781 | 0.625 | 0.512 | 0.424 | 0.357

CCC1CCCCC1 + CCCCCCCC(=O)OCC
viscosity [mPa·s], 100 kPa
Conditions | x1 = 0.1001 | x1 = 0.2 | x1 = 0.3 | x1 = 0.3998 | x1 = 0.5 | x1 = 0.5997 | x1 = 0.7 | x1 = 0.8001 | x1 = 0.9
293.15 K | 1.446 | 1.359 | 1.278 | 1.201 | 1.128 | 1.058 | 0.992 | 0.929 | 0.877
298.15 K | 1.328 | 1.254 | 1.182 | 1.113 | 1.046 | 0.983 | 0.924 | 0.869 | 0.821
303.15 K | 1.224 | 1.156 | 1.09 | 1.03 | 0.971 | 0.916 | 0.862 | 0.812 | 0.768
308.15 K | 1.132 | 1.071 | 1.012 | 0.957 | 0.903 | 0.854 | 0.808 | 0.762 | 0.72
313.15 K | 1.039 | 0.985 | 0.932 | 0.882 | 0.835 | 0.792 | 0.749 | 0.709 | 0.674
318.15 K | 0.977 | 0.927 | 0.879 | 0.833 | 0.79 | 0.748 | 0.71 | 0.672 | 0.64
323.15 K | 0.902 | 0.856 | 0.812 | 0.771 | 0.733 | 0.696 | 0.661 | 0.625 | 0.595

CCC1CCCCC1 + CCCCCCCCCC(=O)OCC
viscosity [mPa·s], 100 kPa
Conditions | x1 = 0.1001 | x1 = 0.1999 | x1 = 0.3001 | x1 = 0.4 | x1 = 0.5002 | x1 = 0.5998 | x1 = 0.7 | x1 = 0.8 | x1 = 0.9001
293.15 K | 2.153 | 1.979 | 1.807 | 1.642 | 1.487 | 1.342 | 1.204 | 1.079 | 0.96
298.15 K | 1.963 | 1.807 | 1.655 | 1.51 | 1.373 | 1.242 | 1.12 | 1.007 | 0.9
303.15 K | 1.778 | 1.642 | 1.51 | 1.382 | 1.261 | 1.146 | 1.038 | 0.936 | 0.84
308.15 K | 1.626 | 1.503 | 1.384 | 1.271 | 1.165 | 1.063 | 0.966 | 0.873 | 0.786
313.15 K | 1.494 | 1.385 | 1.276 | 1.174 | 1.078 | 0.987 | 0.9 | 0.815 | 0.734
318.15 K | 1.377 | 1.279 | 1.185 | 1.095 | 1.01 | 0.928 | 0.846 | 0.767 | 0.692
323.15 K | 1.27 | 1.184 | 1.102 | 1.021 | 0.943 | 0.867 | 0.793 | 0.722 | 0.652

Cc1cccc2ccccc12 + CCCCCCCCCCCC
323.15 K, 100 kPa
Conditions | viscosity
x1 = 0.382 | 1.01 mPa·s and 1.02 mPa·s
x1 = 0.699 | 1.22 mPa·s

CCCCCCCCCO + CCCCCCCCCCO
Conditions | viscosity [mPa·s]
293.15 K, 101.33 kPa, x1 = 0.1193 | 14.2
293.15 K, 101.33 kPa, x1 = 0.3048 | 13.76
293.15 K, 101.33 kPa, x1 = 0.5886 | 12.82
293.15 K, 101.33 kPa, x1 = 0.8745 | 12.02
298.15 K, 101.33 kPa, x1 = 0.2583 | 11.34
298.15 K, 101.33 kPa, x1 = 0.6152 | 10.53
298.15 K, 101.33 kPa, x1 = 0.869 | 9.852
298.15 K, 101.8 kPa, x1 = 0.9074 | 9.726
308.15 K, 101.8 kPa, x1 = 0.1082 | 7.899
308.15 K, 101.8 kPa, x1 = 0.3202 | 7.632
308.15 K, 101.8 kPa, x1 = 0.7188 | 7.125
308.15 K, 101.8 kPa, x1 = 0.9074 | 6.876
318.15 K, 101.8 kPa, x1 = 0.1082 | 5.649
318.15 K, 101.8 kPa, x1 = 0.3202 | 5.463
318.15 K, 101.8 kPa, x1 = 0.5233 | 5.336
318.15 K, 101.8 kPa, x1 = 0.7188 | 5.124
318.15 K, 101.8 kPa, x1 = 0.9074 | 4.953
